Measured values as given in PMC11056381, “Characterization and evaluation of cytotoxic and antimicrobial activities of cyclotides from Viola japonica” (Scientific Reports, 2024).
Values after ≈ are worked out from the molar mass of the structure shown. Residues, ends and D or L forms follow the SMILES beside them.

Columns and labels:
[1] = test system: Escherichia coli (CMCC(B)44102-2-6); test: microbe, parasite or virus in culture; conditions: 10^6 CFU/ml, 96-well plate, overnight 37 °C, visual clarity, performed at least three times
Source text: (§1) Viba 11, originally discovered in Viola baoshanensis[39] and found in other plants such as Viola tricolor[40], Viola betonicifolia, and Viola philippica, lacks biological activity studies. […] All purified cyclotides underwent antibacterial testing against Gram-positive bacterium Staphylococcus aureus (CMCC(B)26003-2-10) and Bacillus subtilis (CMCC(B)63501), Gram-negative bacteria, including Acinetobacter baumannii (ATCC19606), Escherichia coli (CMCC(B)44102-2-6), and Salmonella paratyphi (CMCC(B)50094-2-9).
(§2) Bacterial fluids are cultured overnight at 37 °C. The next day, the bacterial liquids are diluted to a concentration of 10^6 CFU/ml. Prepare different concentrations of cyclotide drugs and kanamycin sulfate in advance, and sequentially add the drugs and bacterial liquid to the 96-well plate. Negative controls consisted of sterile water and bacterial liquid. The plate is cultured overnight at 37 °C and observe whether the solution remains clear to see the growth of the bacterial suspension. Each test was performed three times at least.

[2] = test system: Bacillus subtilis (CMCC(B)63501); test: microbe, parasite or virus in culture; conditions: 10^6 CFU/ml, 96-well plate, overnight 37 °C, visual clarity, performed at least three times
Source text: as §1, §2

[3] = test system: Acinetobacter baumannii (ATCC19606); test: microbe, parasite or virus in culture; conditions: Acinetobacter baumannii ATCC19606; 10^6 CFU/ml, 96-well plate, overnight 37 °C, visual clarity; performed at least three times
Source text: as §1, §2

[4] = test system: Salmonella paratyphi (CMCC(B)50094-2-9); test: MIC, broth dilution in 96-well plate; type: cell-based; conditions: 10^6 CFU/ml, overnight 37 °C, visual clarity, performed at least three times
Source text: (§3) Cycloviolacin O2, known for its antimicrobial, hemolytic, and insecticidal activities, has been more extensively investigated[4],[20],[36]–[38]. Viba 11, originally discovered in Viola baoshanensis[39] and found in other plants such as Viola tricolor[40], Viola betonicifolia, and Viola philippica, lacks biological activity studies. These two cyclotides and vija 10 are high in content and easy to purify, and cycloviolacin O2 can also be used as a positive control to conduct activity study. In addition, few vija12 and 31 were extracted for antibacterial experiments. All purified cyclotides underwent antibacterial testing against Gram-positive bacterium Staphylococcus aureus (CMCC(B)26003-2-10) and Bacillus subtilis (CMCC(B)63501), Gram-negative bacteria, including Acinetobacter baumannii (ATCC19606), Escherichia coli (CMCC(B)44102-2-6), and Salmonella paratyphi (CMCC(B)50094-2-9). […] In addition, the MICs of viba 11, cycloviolacin O2 and vija 10 against B. subtilis were respectively 5.4 μM, 2.1 μM and 14.3 μM (Table 1). […] Therefore, it is hypothesized that the lower antimicrobial activity of vija 10 may be attributed to the presence of only one Lys residue in loop 5.
as §2

[5] = test system: Staphylococcus aureus (CMCC(B)26003-2-10); test: MIC, broth dilution in 96-well plate; type: cell-based; conditions: 10^6 CFU/ml, overnight 37 °C, visual clarity, performed at least three times
Source text: as §3, §2

## CC[C@H](C)[C@@H]1NC(=O)[C@@H]2CSSC[C@@H]3NC(=O)[C@H](C(C)C)NC(=O)[C@H](CCCCN)NC(=O)[C@H](CO)NC(=O)[C@H](CO)NC(=O)[C@@H]4CSSC[C@H](NC(=O)[C@H](CO)NC(=O)[C@H](CCC(=O)O)NC(=O)CNC(=O)[C@H](CSSC[C@H](NC(=O)CNC(=O)[C@H](CC(C)C)NC(=O)[C@H](CC(C)C)NC(=O)[C@H](C)NC(=O)[C@H](CO)NC1=O)C(=O)N[C@@H](CO)C(=O)N4)NC(=O)[C@@H]1CCCN1C(=O)[C@H]([C@@H](C)CC)NC(=O)[C@H](CO)NC(=O)CNC(=O)[C@H](CC(N)=O)NC(=O)[C@H](CCCCN)NC(=O)[C@H](Cc1ccc(O)cc1)NC3=O)C(=O)N[C@@H](C(C)C)C(=O)N[C@@H](Cc1ccccc1)C(=O)N[C@@H]([C@@H](C)CC)C(=O)N1CCC[C@H]1C(=O)N2 [vija 10] (HELM PEPTIDE1{A.L.L.G.C.S.C.S.S.K.V.C.Y.K.N.G.S.I.P.C.G.E.S.C.V.F.I.P.C.I.S}$PEPTIDE1,PEPTIDE1,5:R3-20:R3|PEPTIDE1,PEPTIDE1,7:R3-24:R3|PEPTIDE1,PEPTIDE1,12:R3-29:R3|PEPTIDE1,PEPTIDE1,1:R1-31:R2$$$V2.0)
[1]
  MIC: > 28.5 µM
[2]
  MIC: 14.3 µM (≈ 45 µg/mL)
[3]
  MIC: 57 µM (≈ 179 µg/mL)
[4]
  MIC: > 28.5 µM
[5]
  MIC: > 28.5 µM
